Article PMC8231118, “Evaluating the Antioxidants, Whitening and Antiaging Properties of Rice Protein Hydrolysates” (Molecules, 2021)
≈ marks a conversion by molar mass, not a printed value.

Target: T1, mushroom tyrosinase
T1 construct: gene PPO3
Assay: dopachrome absorbance at […] nm
Format: biochemical
Settings: L-DOPA substrate (1.25 mM solution), 20 mM phosphate pH 6.8, 37 °C, 30 min

IC50: 0.098 mg/mL (≈ 556 µM)
Compound: O=C1O[C@H]([C@@H](O)CO)C(O)=C1O [ascorbic acid]
